Test results from patent publication US10865334B2, “Process for extracting materials from biological material” (Universiteit Leiden, priority 2010, dated 2020).
Converted amounts (≈) assume the structure as drawn.

What was measured:
[1] = solubility of flavonoids in naturally occurring deep eutectic solvents; format: physicochemical
Description: First the solubility of natural products, which are not soluble in water, was evaluated in a few selected natural deep eutectic solvents. Several flavonoids were chosen as the natural water-insoluble products, because they are one of the most abundant water-insoluble plant secondary metabolites. Up to now more than 500 flavonoids have been known. Most of these flavonoids occur in their glycosides forms (bounded to a sugar molecule) in plants. In spite of large abundance of flavonoids in plants, both the glycoside and the aglycone (non-sugar) part are not soluble in water. […] The structure of these flavonoids are shown below.

[2] = solubility data in some typical Des at 40° C.; format: physicochemical; details: for solubility in GCH / solubility in H2O / solubility in LGH / solubility in PdCH / solubility in SoCH: n = 3
[3] = solvent GCH (Glc:Ch:H2O 1:2.5:2.5)
[4] = solvent LGH (Lac:Glc:H2O 5:1:2)
[5] = solvent PdCH (1,2Prop:Ch:H20 1:1:1)
[6] = deep eutectic solvent LGH, organic solvent or mixture, solvent LGH (Lac:Glc:H2O 5:1:2), n = 3, read-out: solubility in LGH
[7] = deep eutectic solvent PdCH, organic solvent or mixture, solvent PdCH (1,2Prop:Ch:H20 1:1:1), n = 3, read-out: solubility in PdCH
[8] = deep eutectic solvent SoCH, organic solvent or mixture, solvent SoCH (So:Ch:H2O), n = 3, read-out: solubility in SoCH
[9] = deep eutectic solvent GCH, organic solvent or mixture, solvent GCH (Glc:Ch:H2O 1:2.5:2.5), n = 3, read-out: solubility in GCH
[10] = organic solvent or mixture, Solubility in Fructose + Choline chloride
[11] = organic solvent or mixture, Solubility in Glucose + Choline chloride

SMILES | solubility in GCH [2, 3] [mg/mL] | solubility in H2O ([2]; solvent H2O) [mg/mL] | solubility in LGH [2, 4] [mg/mL] | solubility in PdCH [2, 5] [mg/mL] | solubility in SoCH ([2]; solvent SoCH (So:Ch:H2O)) [mg/mL] | solubility [2, 6] [mg/mL] | solubility [2, 7] [mg/mL] | solubility [2, 8] [mg/mL] | solubility [2, 9] [mg/mL] | solubility [1, 10] [mg/mL] | solubility [1, 11] [mg/mL] | solubility ([1]; water, Solubility in Water) [mg/mL] | also measured
C[C@@H]1O[C@@H](Oc2c(-c3ccc(O)c(O)c3)oc3cc(O)cc(O)c3c2=O)[C@H](O)[C@H](O)[C@H]1O [Quercitrin, quercetin-3-O-rhamnoside] |  |  |  |  |  |  |  |  |  |  |  |  | solubility ([1]; organic solvent or mixture, deep eutectic solvent Fructose + Choline chloride, read-out: Solubility in Fructose + Choline chloride): 11.2 ± 0.64 mg/mL; solubility ([1]; organic solvent or mixture, deep eutectic solvent Glucose + Choline chloride, read-out: Solubility in Glucose + Choline chloride): 7.81 ± 0.2 mg/mL; solubility ([1]; organic solvent or mixture, deep eutectic solvent Sucrose + Choline chloride, read-out: Solubility in Sucrose + Choline chloride): 12.7 ± 0.38 mg/mL; solubility ([1]; water, read-out: Solubility in Water): 0.159 ± 0.001 mg/mL (≈ 0.355 mM)
O=C(/C=C/c1ccc(O)cc1)C1=C(O)[C@](O)([C@@H]2O[C@H](CO)[C@@H](O)[C@H](O)[C@H]2O)C(O)=C(/C=C2/C(=O)C(C(=O)/C=C/c3ccc(O)cc3)=C(O)[C@@](O)([C@@H]3O[C@H](CO)[C@@H](O)[C@H](O)[C@H]3O)C2=O)C1=O [carthamin] | 27.20 ± 0.39 (≈ 29.9 mM) | 1.43 ± 0.01 (≈ 1.57 mM) | 1.24 ± 0.21 (≈ 1.36 mM) | 22.47 ± 1.00 (≈ 24.7 mM) | 14.05 ± 0.66 (≈ 15.4 mM) |  |  |  |  |  |  |  | 
CC1C(=O)OC2C(O)C34C5CC(C(C)(C)C)C36C(OC(=O)C6O)OC4(C(=O)O5)C12O (centres unmarked) [ginkgolide B] | 5.85 ± 0.42 (≈ 13.8 mM) | 0.15 ± 0.00 (≈ 0.353 mM) | 1.93 ± 0.31 (≈ 4.55 mM) | 78.42 ± 14.45 (≈ 185 mM) | 1.70 ± 0.01 (≈ 4.01 mM) |  |  |  |  |  |  |  | 
CC(=O)O[C@H]1C(=O)[C@@]2(C)[C@H]([C@H](OC(=O)c3ccccc3)[C@]3(O)C[C@H](OC(=O)[C@H](O)[C@@H](NC(=O)c4ccccc4)c4ccccc4)C(C)=C1C3(C)C)[C@]1(OC(C)=O)CO[C@@H]1C[C@@H]2O [paclitaxel] | 0.83 ± 0.16 (≈ 0.972 mM) |  |  |  |  | 5.39 ± 0.55 (≈ 6.31 mM) | 11.7 ± 0.68 (≈ 13.7 mM) | 0.59 ± 0.01 (≈ 0.691 mM) |  |  |  |  | 
O=c1c(O)c(-c2ccc(O)c(O)c2)oc2cc(O)cc(O)c12 [quercetin] |  |  |  |  |  | 1.72 ± 0.09 (≈ 5.69 mM) | 205 ± 7.31 (≈ 679 mM) | 146 ± 2.82 (≈ 483 mM) | 20.1 ± 0.41 (≈ 66.4 mM) | 23.3 ± 2.54 | 21.6 ± 0.94 | 0.3 ± 0.002 (≈ 0.993 mM) | Solubility in Sucrose + Choline chloride [1]: 15.63 ± 0.57 mg/mL
C[C@@H]1O[C@@H](OC[C@H]2O[C@@H](Oc3c(-c4ccc(O)c(O)c4)oc4cc(O)cc(O)c4c3=O)[C@H](O)[C@@H](O)[C@@H]2O)[C@H](O)[C@H](O)[C@H]1O [rutin, quercetin-3-O-rhanmoglucoside] |  |  |  |  |  | 8.14 ± 0.79 (≈ 13.3 mM) | 353 ± 31.2 (≈ 578 mM) | 149 ± 2.61 (≈ 244 mM) | 122 ± 1.45 (≈ 199 mM) | 10.9 ± 1.7 | 4.78 ± 0.84 | < 0.001 | solubility ([2]; water, solvent H2O, n = 3, read-out: solubility in H2O): 0.028 mg/mL (≈ 0.0459 mM); solubility ([1]; organic solvent or mixture, Solubility in Sucrose + Choline chloride): 2.41 ± 0.18 mg/mL
